Assay results published in ChEMBL document CHEMBL4145602, “Cyclic Peptidic Mimetics of Apollo Peptides Targeting Telomeric Repeat Binding Factor 2 (TRF2) and Apollo Interaction” (ACS Med Chem Lett, 2018).
Peptide text beside a SMILES is read from it.

Target: T1, Telomeric repeat-binding factor 2 (Homo sapiens, UniProt Q15554)
T1 sequence (Q15554 whole entry): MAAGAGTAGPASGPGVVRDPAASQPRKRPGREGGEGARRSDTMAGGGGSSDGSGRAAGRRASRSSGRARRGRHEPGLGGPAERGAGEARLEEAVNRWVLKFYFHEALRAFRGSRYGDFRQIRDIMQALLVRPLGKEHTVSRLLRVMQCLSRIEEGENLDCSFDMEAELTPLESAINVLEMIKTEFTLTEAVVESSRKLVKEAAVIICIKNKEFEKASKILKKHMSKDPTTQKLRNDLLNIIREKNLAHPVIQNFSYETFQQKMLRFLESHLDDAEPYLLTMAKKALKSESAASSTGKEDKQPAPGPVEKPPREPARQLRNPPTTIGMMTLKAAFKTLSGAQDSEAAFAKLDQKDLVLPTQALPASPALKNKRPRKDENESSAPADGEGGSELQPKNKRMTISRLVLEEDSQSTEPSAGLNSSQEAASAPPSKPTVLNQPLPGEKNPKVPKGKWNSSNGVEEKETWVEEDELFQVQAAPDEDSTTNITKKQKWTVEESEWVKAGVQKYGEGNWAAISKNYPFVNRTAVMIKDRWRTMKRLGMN
Assay: Displacement of 5-((2R,6S,9S,12S,15S,18S,21S,24S)-3-((S)-2-((S)-1-amino-3-methyl-1-oxobutan-2-ylcarbamoyl)pyrrolidine-1-carbonyl)-15-(4-aminobutyl)-2-hydroxy-12-(4-hydroxybenzyl)-6,9,18,24-tetraisobutyl-21-methyl-5,8,11,14,17,20,23,26,29-nonaoxo-4,7,10,13,16,19,22,25,28-nonaazatetratriacontan-34-ylcarbamoyl)-2-(6-hydroxy-3-oxo-3H-xanthen-9-yl)benzoic acid from TRF2 TRFH domain (unknown origin) after 30 mins by fluorescence polarization assay

Row | Ki [µM] | Compound
1 | 3.4 | CC(=O)N[C@@H](CC(C)C)C(=O)N[C@@H](C)C(=O)N[C@@H](CC(C)C)C(=O)N[C@@H](CCCCN)C(=O)N[C@@H](Cc1ccccc1)C(=O)N[C@@H](CC(C)C)C(=O)N[C@@H](CC(C)C)C(=O)N[C@H](C(=O)N1CCC[C@H]1C(=O)N[C@H](C(N)=O)C(C)C)[C@@H](C)O (Ac-LALKFLLTPV-NH2)
2 | 98 | CC(=O)N[C@@H](CC(C)C)C(=O)N[C@@H](C)C(=O)N[C@@H](CC(C)C)C(=O)N[C@@H](CCCCN)C(=O)N[C@@H](Cc1ccc(O)cc1)C(=O)N[C@@H](CC(C)C)C(=O)N[C@@H](CC(C)C)C(=O)O (Ac-LALKYLL-OH)
3 | 11.2 | CC(C)C[C@@H]1NC(=O)[C@@H](NC(=O)[C@H](Cc2ccccc2)NC(=O)CCc2ccccc2)CCCCCCC[C@@H](C(=O)N(C)C)NC(=O)[C@@H]2CCCN2C(=O)[C@H](C)NC1=O
